Data as given in ChEMBL document CHEMBL4138123, “Design, synthesis and biological evaluation of novel pyrazolochalcones as potential modulators of PI3K/Akt/mTOR pathway and inducers of apoptosis in breast cancer cells” (Eur J Med Chem, 2017).

What was measured:
Type in all cases: functional
HT-29 [1] = assay: Cytotoxicity against human HT-29 cells assessed as cell growth at 0.01 uM after 48 hrs by sulforhodamine B assay relative to control; settings: HT-29, 48 h, read-out: Activity
Hs-578T = assay: Cytotoxicity against human Hs 578T cells assessed as cell growth at 0.1 uM after 48 hrs by sulforhodamine B assay relative to control; settings: read-out: Activity
OVCAR-8 = assay: Cytotoxicity against human OVCAR8 cells assessed as cell growth at 0.1 uM after 48 hrs by sulforhodamine B assay relative to control; settings: OVCAR-8, 48 h, read-out: Activity
SF-539 [2] = assay: Cytotoxicity against human SF539 cells assessed as cell growth at 1 uM after 48 hrs by sulforhodamine B assay relative to control; settings: SF-539, 48 h, read-out: Activity
HOP-62 [3] = assay: Cytotoxicity against human HOP62 cells assessed as cell growth at 0.1 uM after 48 hrs by sulforhodamine B assay relative to control; settings: HOP-62, 48 h, read-out: Activity
MDA-MB-468 [4] = assay: Cytotoxicity against human MDA-MB-468 cells assessed as cell growth at 100 uM after 48 hrs by sulforhodamine B assay relative to control; settings: MDA-MB-468, 48 h, read-out: Activity
UACC-62 [5] = assay: Cytotoxicity against human UACC62 cells assessed as cell growth at 1 uM after 48 hrs by sulforhodamine B assay relative to control; settings: UACC-62, 48 h, read-out: Activity
NCI/ADR-RES = assay: Cytotoxicity against human NCI/ADR-RES cells assessed as cell growth at 10 uM after 48 hrs by sulforhodamine B assay relative to control; settings: read-out: Activity
M14 = assay: Cytotoxicity against human M14 cells assessed as cell growth at 1 uM after 48 hrs by sulforhodamine B assay relative to control; settings: M14, 48 h, read-out: Activity
MDA-MB-468 [6] = assay: Cytotoxicity against human MDA-MB-468 cells assessed as cell growth at 0.01 uM after 48 hrs by sulforhodamine B assay relative to control; settings: MDA-MB-468, 48 h, read-out: Activity
MDA-MB-231 [7] = assay: Cytotoxicity against human MDA-MB-231 cells assessed as growth inhibition after 48 hrs by sulforhodamine B assay; settings: MDA-MB-231, 48 h
OVCAR-4 = assay: Cytotoxicity against human OVCAR4 cells assessed as cell growth at 10 uM after 48 hrs by sulforhodamine B assay relative to control; settings: OVCAR-4, 48 h, read-out: Activity
SW-620 = assay: Cytotoxicity against human SW620 cells assessed as cell growth at 1 uM after 48 hrs by sulforhodamine B assay relative to control; settings: SW-620, 48 h, read-out: Activity
MDA-MB-231 [8] = assay: Cytotoxicity against human MDA-MB-231 cells assessed as cell growth at 100 uM after 48 hrs by sulforhodamine B assay relative to control; settings: MDA-MB-231, 48 h, read-out: Activity
MDA-MB-231 [9] = assay: Cytotoxicity against human MDA-MB-231 cells assessed as cell growth at 0.1 uM after 48 hrs by sulforhodamine B assay relative to control; settings: MDA-MB-231, 48 h, read-out: Activity
K562 = assay: Cytotoxicity against human K562 cells assessed as growth inhibition after 48 hrs by sulforhodamine B assay; settings: K562, 48 h
RPMI-8226 = assay: Cytotoxicity against human RPMI8226 cells assessed as cell growth at 0.1 uM after 48 hrs by sulforhodamine B assay relative to control; settings: RPMI-8226, 48 h, read-out: Activity
UACC-62 [10] = assay: Cytotoxicity against human UACC62 cells assessed as cell growth at 10 uM after 48 hrs by sulforhodamine B assay relative to control; settings: UACC-62, 48 h, read-out: Activity
SF-539 [11] = assay: Cytotoxicity against human SF539 cells assessed as cell growth at 10 uM after 48 hrs by sulforhodamine B assay relative to control; settings: SF-539, 48 h, read-out: Activity
ACHN = assay: Cytotoxicity against human ACHN cells assessed as cell growth at 0.01 uM after 48 hrs by sulforhodamine B assay relative to control; settings: read-out: Activity
Malme-3M = assay: Cytotoxicity against human MALME-3M cells assessed as cell growth at 1 uM after 48 hrs by sulforhodamine B assay relative to control; settings: read-out: Activity
MDA-MB-231 [12] = assay: Cytotoxicity against human MDA-MB-231 cells assessed as cell growth at 10 uM after 48 hrs by sulforhodamine B assay relative to control; settings: MDA-MB-231, 48 h, read-out: Activity
RXF 393 = assay: Cytotoxicity against human RXF393 cells assessed as cell growth at 0.01 uM after 48 hrs by sulforhodamine B assay relative to control; settings: RXF 393, 48 h, read-out: Activity
SF-268 [13] = assay: Cytotoxicity against human SF268 cells assessed as cell growth at 100 uM after 48 hrs by sulforhodamine B assay relative to control; settings: SF-268, 48 h, read-out: Activity
HOP-62 [14] = assay: Cytotoxicity against human HOP62 cells assessed as cell growth at 100 uM after 48 hrs by sulforhodamine B assay relative to control; settings: HOP-62, 48 h, read-out: Activity
HT-29 [15] = assay: Cytotoxicity against human HT-29 cells assessed as growth inhibition after 48 hrs by sulforhodamine B assay; settings: HT-29, 48 h
HCC 2998 = assay: Cytotoxicity against human HCC2998 cells assessed as cell growth at 100 uM after 48 hrs by sulforhodamine B assay relative to control; settings: HCC 2998, 48 h, read-out: Activity
NCI-H522 = assay: Cytotoxicity against human NCI-H522 cells assessed as cell growth at 1 uM after 48 hrs by sulforhodamine B assay relative to control; settings: NCI-H522, 48 h, read-out: Activity
MDA-MB-435 = assay: Cytotoxicity against human MDA-MB-435 cells assessed as cell growth at 100 uM after 48 hrs by sulforhodamine B assay relative to control; settings: MDA-MB-435, 48 h, read-out: Activity
SK-MEL-5 = assay: Cytotoxicity against human SK-MEL-5 cells assessed as growth inhibition after 48 hrs by sulforhodamine B assay; settings: SK-MEL-5, 48 h
SK-MEL-28 = assay: Cytotoxicity against human SK-MEL-28 cells assessed as cell growth at 0.01 uM after 48 hrs by sulforhodamine B assay relative to control; settings: SK-MEL-28, 48 h, read-out: Activity
HL-60(TB) = assay: Cytotoxicity against human HL-60(TB) cells assessed as cell growth at 1 uM after 48 hrs by sulforhodamine B assay relative to control; settings: HL-60, 48 h, read-out: Activity
SF-268 [16] = assay: Cytotoxicity against human SF268 cells assessed as cell growth at 10 uM after 48 hrs by sulforhodamine B assay relative to control; settings: SF-268, 48 h, read-out: Activity
SF-268 [17] = assay: Cytotoxicity against human SF268 cells assessed as cell growth at 1 uM after 48 hrs by sulforhodamine B assay relative to control; settings: SF-268, 48 h, read-out: Activity
A549 = assay: Cytotoxicity against human A549/ATCC cells assessed as cell growth at 10 uM after 48 hrs by sulforhodamine B assay relative to control; settings: A549, 48 h, read-out: Activity
DU-145 = assay: Cytotoxicity against human DU145 cells assessed as cell growth at 0.1 uM after 48 hrs by sulforhodamine B assay relative to control; settings: DU-145, 48 h, read-out: Activity

SMILES	growth at 0.01 µM (HT-29 [1]) [%]	growth at 0.1 µM (Hs-578T) [%]	growth at 0.1 µM (OVCAR-8) [%]	growth at 1 µM (SF-539 [2]) [%]	growth at 0.1 µM (HOP-62 [3]) [%]	growth at 100 µM (MDA-MB-468 [4]) [%]	growth at 1 µM (UACC-62 [5]) [%]	growth at 10 µM (NCI/ADR-RES) [%]	growth at 1 µM (M14) [%]	growth at 0.01 µM (MDA-MB-468 [6]) [%]	TGI (MDA-MB-231 [7]) [µM]	growth at 10 µM (OVCAR-4) [%]	growth at 1 µM (SW-620) [%]	growth at 100 µM (MDA-MB-231 [8]) [%]	growth at 0.1 µM (MDA-MB-231 [9]) [%]	TGI (K562) [µM]	growth at 0.1 µM (RPMI-8226) [%]	growth at 10 µM (UACC-62 [10]) [%]	growth at 10 µM (SF-539 [11]) [%]	growth at 0.01 µM (ACHN) [%]	further results
COc1cc(-c2cc(/C=C/C(=O)c3ccc(F)c(F)c3)[nH]n2)cc(OC)c1OC	104	97	96	90	101	-26	88	11	86	90	4.58	17	93	-49	96	16.5	90	-13	21	102	LC50 (MDA-MB-231 [7]): > 100 µM; LC50 (concentration killing 50% of cells) (K562): > 100 µM; growth at 1 µM (Malme-3M): 97%; growth at 10 µM (MDA-MB-231 [12]): -38%; growth at 0.01 µM (RXF 393): 94%; growth at 100 µM (SF-268 [13]): 1%; growth at 100 µM (HOP-62 [14]): 4%; LC50 (HT-29 [15]): 40.8 µM; TGI (HT-29 [15]): 6.46 µM; growth at 100 µM (HCC 2998): -11%; growth at 1 µM (NCI-H522): 71%; growth at 100 µM (MDA-MB-435): -34%; LC50 (concentration killing 50% of cells) (SK-MEL-5): 26.7 µM; TGI (SK-MEL-5): 6.41 µM; growth at 0.01 µM (SK-MEL-28): 102%; growth at 1 µM (HL-60(TB)): 101%; growth at 10 µM (SF-268 [16]): 17%; growth at 1 µM (SF-268 [17]): 83%
COc1cc(C(=O)/C=C/c2cc(-c3cc(OC)c(OC)c(OC)c3)n[nH]2)cc(OC)c1OC	95	90	94	66	94	-91	90	12	98	90	3.8	-100	85	-96	104	> 100	83	-69	-80	103	LC50 (MDA-MB-231 [7]): 9.51 µM; LC50 (concentration killing 50% of cells) (K562): > 100 µM; growth at 10 µM (A549): 6%; growth at 1 µM (Malme-3M): 89%; growth at 10 µM (MDA-MB-231 [12]): -53%; growth at 0.01 µM (RXF 393): 93%; growth at 100 µM (SF-268 [13]): -75%; growth at 100 µM (HOP-62 [14]): -100%; LC50 (HT-29 [15]): 6.36 µM; TGI (HT-29 [15]): 3.37 µM; growth at 100 µM (HCC 2998): -89%; growth at 1 µM (NCI-H522): 29%; growth at 100 µM (MDA-MB-435): -83%; LC50 (concentration killing 50% of cells) (SK-MEL-5): 5.49 µM; TGI (SK-MEL-5): 2.94 µM; growth at 0.01 µM (SK-MEL-28): 101%; growth at 1 µM (HL-60(TB)): 81%; growth at 10 µM (SF-268 [16]): -45%; growth at 1 µM (SF-268 [17]): 89%
COc1ccc(C(=O)/C=C/c2cc(-c3ccc(OC)c(OC)c3)n[nH]2)cc1OC	98	91	98	35	84	-64	89	16	92	87	6.38	-7	66	-28	99	> 100	91	-57	-51	93	GI50 (MDA-MB-231 [7]): 1.88 µM; GI50 (K562): 0.619 µM; growth at 1 µM (Malme-3M): 104%; growth at 10 µM (MDA-MB-231 [12]): -18%; growth at 0.01 µM (RXF 393): 94%; growth at 100 µM (SF-268 [13]): -25%; growth at 100 µM (HOP-62 [14]): -13%; GI50 (HT-29 [15]): 1.38 µM; TGI (HT-29 [15]): 4.95 µM; growth at 100 µM (HCC 2998): -91%; growth at 0.1 µM (DU-145): 105%; growth at 1 µM (NCI-H522): 82%; growth at 100 µM (MDA-MB-435): 2%; GI50 (SK-MEL-5): 1.58 µM; TGI (SK-MEL-5): 2.96 µM; growth at 0.01 µM (SK-MEL-28): 89%; growth at 1 µM (HL-60(TB)): 86%; growth at 10 µM (SF-268 [16]): -1%; growth at 1 µM (SF-268 [17]): 74%
